Experimental data as given in PMC8525843 (Investigative Ophthalmology & Visual Science, 2021).

Legend:
[1] = test system: hypertonic saline-induced ocular hypertensive NZW rabbits; assay: IOP-lowering effect in hypertonic saline-induced ocular hypertensive NZW rabbits; assay type: in vivo, rabbit; details: 0.02%; at 1.5 hours; vs saline
[2] = test system: patients; details: clinical data; cited from earlier work
[3] = test system: rabbit eyes; details: after administration; cited from earlier work

## Cc1ccc(C(=O)OCc2ccc([C@@H](CN)C(=O)Nc3ccc4cnccc4c3)cc2)c(C)c1 [AR-13324, netarsudil]
[1]
  Emax of IOP reduction: 12.1 ± 0.9 mm Hg

## C[C@H]1CNCCCN1S(=O)(=O)c1cccc2cncc(F)c12 [ripasudil, Ripasudil]
[2]
  time for conjunctival hyperemia to resolve spontaneously: ≤ 4 h

## O=S(=O)(c1cccc2c(Cl)cccc12)N1CCCNCC1 [ML-9]
[3]
  IOP of rabbit eyes: decreased in a dose-dependent manner
